Experimental data reported in ChEMBL document CHEMBL3875233, “Non-kinase targets of protein kinase inhibitors” (Nat Rev Drug Discov, 2017).

Assays:
[1] = biological target: T1, Bromodomain-containing protein 4 (Homo sapiens, UniProt O60885)
Description: Binding affinity to recombinant human His6-TEV protease-tagged BRD4 bromodomain 1 expressed in bacteria by isothermal titration calorimetric method

[2] = biological target: T2, Ribosyldihydronicotinamide dehydrogenase [quinone] (Homo sapiens, UniProt P16083)
T2 sequence (P16083 whole entry): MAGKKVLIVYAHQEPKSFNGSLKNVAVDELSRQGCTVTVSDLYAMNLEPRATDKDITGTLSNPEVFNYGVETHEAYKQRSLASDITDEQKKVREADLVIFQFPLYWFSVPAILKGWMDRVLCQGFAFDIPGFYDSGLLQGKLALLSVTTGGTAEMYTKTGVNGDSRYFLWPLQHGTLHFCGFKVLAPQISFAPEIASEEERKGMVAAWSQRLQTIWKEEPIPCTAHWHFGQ
Description: Inhibition of kinobead binding to NQO2 in human K562 cells incubated for 30 mins by iTRAQ reagent-based mass spectrometric method

[3] = biological target: Mitogen-activated protein kinase 14 (Mus musculus, UniProt P47811); test: Inhibition of mouse N-terminal 5His-tagged p38alpha assessed as decrease in 6His-tagged MK2a (51 to 400 residues) phosphorylation in presence of [gamma-33P]-ATP by scintillation counting method
[4] = Inhibition of tubulin polymerization in human U87 cells assessed as decrease in cell viability after 72 hrs by Alamar blue assay; assay type: cell-based, U-87MG ATCC; conditions: U-87 MG
[5] = biological target: Oxidized purine nucleoside triphosphate hydrolase (Homo sapiens, UniProt P36639)
Description: Inhibition of DsRed-fused MTH1 (unknown origin) expressed in HEK293T cells using 8-oxo-dGTP as substrate

[6] = biological target: T1, Bromodomain-containing protein 4; test: Inhibition of immobilized N-LY294002 bead binding to C-terminal Flag-tagged BRD4 (unknown origin) expressed in HEK293T cell nuclear extract incubated for 1 hr by LC-MS/MS analysis; parameters: species or system HEK-293T
[7] = biological target: Bromodomain-containing protein 2 (Homo sapiens, UniProt P25440); test: Inhibition of immobilized N-LY294002 bead binding to BRD2 (unknown origin) expressed in HEK293T cell nuclear extract incubated for 1 hr by LC-MS/MS analysis; parameters: species or system HEK-293T
[8] = biological target: Bromodomain-containing protein 3 (Homo sapiens, UniProt Q15059); test: Inhibition of immobilized N-LY294002 bead binding to BRD3 (unknown origin) expressed in HEK293T cell nuclear extract incubated for 1 hr by LC-MS/MS analysis; parameters: species or system HEK-293T
[9] = biological target: T1, Bromodomain-containing protein 4; remark: listed apart in the source
[10] = biological target: Bromodomain testis-specific protein (Homo sapiens) (UniProt Q58F21)
[11] = biological target: T3, Ferrochelatase, mitochondrial (Homo sapiens, UniProt P22830); test: Stabilization of FECH in human K562 cells after 1 hr by thermal shift assay; assay type: cell-based
T3 sequence (P22830 whole entry): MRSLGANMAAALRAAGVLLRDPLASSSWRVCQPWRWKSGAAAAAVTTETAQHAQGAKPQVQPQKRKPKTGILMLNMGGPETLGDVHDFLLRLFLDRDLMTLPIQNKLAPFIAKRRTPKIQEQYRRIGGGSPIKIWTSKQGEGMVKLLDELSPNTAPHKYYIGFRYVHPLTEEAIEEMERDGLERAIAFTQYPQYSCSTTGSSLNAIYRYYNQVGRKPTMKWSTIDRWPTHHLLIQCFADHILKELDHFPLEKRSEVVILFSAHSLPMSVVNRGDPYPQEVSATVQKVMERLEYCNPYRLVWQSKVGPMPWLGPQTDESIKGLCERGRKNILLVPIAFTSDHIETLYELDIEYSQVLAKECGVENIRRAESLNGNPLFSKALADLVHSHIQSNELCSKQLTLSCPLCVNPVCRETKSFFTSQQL

[12] = biological target: T4, Receptor-type tyrosine-protein kinase FLT3 (Homo sapiens, UniProt P36888); test: Inhibition of FLT3 (unknown origin)
T4 sequence (P36888 whole entry): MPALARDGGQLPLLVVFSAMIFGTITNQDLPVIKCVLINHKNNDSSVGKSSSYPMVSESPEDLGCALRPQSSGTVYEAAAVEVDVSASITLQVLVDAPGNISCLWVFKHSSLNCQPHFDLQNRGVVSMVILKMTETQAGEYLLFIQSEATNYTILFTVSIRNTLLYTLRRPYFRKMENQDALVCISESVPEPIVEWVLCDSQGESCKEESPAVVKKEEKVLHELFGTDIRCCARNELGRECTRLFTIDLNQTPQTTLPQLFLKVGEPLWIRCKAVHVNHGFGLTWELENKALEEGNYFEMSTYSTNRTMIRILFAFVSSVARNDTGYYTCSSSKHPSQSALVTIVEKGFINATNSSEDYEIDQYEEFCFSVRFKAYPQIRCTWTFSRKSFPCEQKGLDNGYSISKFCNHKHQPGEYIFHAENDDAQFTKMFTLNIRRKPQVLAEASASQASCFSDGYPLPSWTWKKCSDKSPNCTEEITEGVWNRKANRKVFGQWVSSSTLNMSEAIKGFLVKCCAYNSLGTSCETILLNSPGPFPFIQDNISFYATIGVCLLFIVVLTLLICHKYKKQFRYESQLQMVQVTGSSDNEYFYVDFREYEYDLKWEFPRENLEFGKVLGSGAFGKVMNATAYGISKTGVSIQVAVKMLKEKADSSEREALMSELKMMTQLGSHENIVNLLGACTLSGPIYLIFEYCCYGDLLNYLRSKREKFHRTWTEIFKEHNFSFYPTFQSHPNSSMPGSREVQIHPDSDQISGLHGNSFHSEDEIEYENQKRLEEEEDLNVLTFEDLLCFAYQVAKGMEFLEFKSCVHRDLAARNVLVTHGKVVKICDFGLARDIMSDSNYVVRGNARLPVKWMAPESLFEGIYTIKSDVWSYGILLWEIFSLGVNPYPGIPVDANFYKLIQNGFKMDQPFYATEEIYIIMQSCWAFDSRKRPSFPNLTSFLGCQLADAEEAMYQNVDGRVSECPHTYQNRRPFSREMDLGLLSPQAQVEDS

[13] = biological target: MAP kinase-activated protein kinase 2 (Homo sapiens, UniProt P49137); test: Inhibition of recombinant MK2 (45 to 400 residues) (unknown origin) using fluorescein isothiocyanate-KKKALSRQLSVAA as substrate
[14] = biological target: Casein kinase I isoform epsilon (Homo sapiens, UniProt P49674); test: Inhibition of human CK1epsilon using casein as substrate in presence of [gamma-32P]-ATP
[15] = biological target: Casein kinase I isoform delta (Homo sapiens, UniProt P48730); test: Inhibition of human CK1delta using casein as substrate in presence of [gamma-32P]-ATP
[16] = Inhibition of porcine brain tubulin polymerization measured every min for 1 hr by fluorescence assay; parameters: species or system Sus scrofa
[17] = Inhibition of porcine brain tubulin polymerization measured every min during incubation by fluorescence assay; parameters: species or system Sus scrofa
[18] = biological target: T5, Receptor-interacting serine/threonine-protein kinase 1 (Homo sapiens, UniProt Q13546); test: Inhibition of recombinant human GST-fused RIPK1 (1 to 497 residues) expressed in baculovirus infected insect Sf9 cells in presence of 32P-gamma-ATP after 30 mins by autoradiogram-based Western blot method
T5 sequence (Q13546 whole entry): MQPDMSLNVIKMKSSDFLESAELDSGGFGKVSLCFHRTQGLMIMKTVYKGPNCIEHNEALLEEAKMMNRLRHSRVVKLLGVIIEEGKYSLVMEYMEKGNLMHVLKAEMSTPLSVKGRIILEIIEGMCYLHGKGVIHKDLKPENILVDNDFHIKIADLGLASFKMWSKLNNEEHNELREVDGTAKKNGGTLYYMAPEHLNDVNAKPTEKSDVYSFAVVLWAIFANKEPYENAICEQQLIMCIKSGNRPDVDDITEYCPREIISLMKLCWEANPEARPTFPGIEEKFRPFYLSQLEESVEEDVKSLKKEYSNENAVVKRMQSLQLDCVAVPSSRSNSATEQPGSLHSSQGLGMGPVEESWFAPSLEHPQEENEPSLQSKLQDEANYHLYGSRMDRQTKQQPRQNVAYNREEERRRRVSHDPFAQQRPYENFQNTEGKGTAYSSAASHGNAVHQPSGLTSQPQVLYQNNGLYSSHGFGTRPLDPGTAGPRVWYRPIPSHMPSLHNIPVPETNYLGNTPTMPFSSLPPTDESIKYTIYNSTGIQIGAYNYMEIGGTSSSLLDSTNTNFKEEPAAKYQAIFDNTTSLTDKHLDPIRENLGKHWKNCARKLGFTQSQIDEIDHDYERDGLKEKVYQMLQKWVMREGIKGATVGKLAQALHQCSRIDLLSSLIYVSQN

[19] = biological target: Indoleamine 2,3-dioxygenase 1 (Homo sapiens, UniProt P14902); test: Inhibition of recombinant human IDO using L-tryptophan as substrate after 60 mins
[20] = Inhibition of tubulin (unknown origin) polymerization by spectrophotometric method; parameters: species or system Homo sapiens
[21] = biological target: T6, Phosphatidylinositol 4,5-bisphosphate 3-kinase catalytic subunit delta isoform (Homo sapiens, UniProt O00329); test: Inhibition of immobilized N-LY294002 bead binding to PI3Kdelta (unknown origin) expressed in HEK293T cells incubated for 1 hr by LC-MS/MS analysis; assay type: cell-based, HEK-293T
T6 sequence (O00329 whole entry): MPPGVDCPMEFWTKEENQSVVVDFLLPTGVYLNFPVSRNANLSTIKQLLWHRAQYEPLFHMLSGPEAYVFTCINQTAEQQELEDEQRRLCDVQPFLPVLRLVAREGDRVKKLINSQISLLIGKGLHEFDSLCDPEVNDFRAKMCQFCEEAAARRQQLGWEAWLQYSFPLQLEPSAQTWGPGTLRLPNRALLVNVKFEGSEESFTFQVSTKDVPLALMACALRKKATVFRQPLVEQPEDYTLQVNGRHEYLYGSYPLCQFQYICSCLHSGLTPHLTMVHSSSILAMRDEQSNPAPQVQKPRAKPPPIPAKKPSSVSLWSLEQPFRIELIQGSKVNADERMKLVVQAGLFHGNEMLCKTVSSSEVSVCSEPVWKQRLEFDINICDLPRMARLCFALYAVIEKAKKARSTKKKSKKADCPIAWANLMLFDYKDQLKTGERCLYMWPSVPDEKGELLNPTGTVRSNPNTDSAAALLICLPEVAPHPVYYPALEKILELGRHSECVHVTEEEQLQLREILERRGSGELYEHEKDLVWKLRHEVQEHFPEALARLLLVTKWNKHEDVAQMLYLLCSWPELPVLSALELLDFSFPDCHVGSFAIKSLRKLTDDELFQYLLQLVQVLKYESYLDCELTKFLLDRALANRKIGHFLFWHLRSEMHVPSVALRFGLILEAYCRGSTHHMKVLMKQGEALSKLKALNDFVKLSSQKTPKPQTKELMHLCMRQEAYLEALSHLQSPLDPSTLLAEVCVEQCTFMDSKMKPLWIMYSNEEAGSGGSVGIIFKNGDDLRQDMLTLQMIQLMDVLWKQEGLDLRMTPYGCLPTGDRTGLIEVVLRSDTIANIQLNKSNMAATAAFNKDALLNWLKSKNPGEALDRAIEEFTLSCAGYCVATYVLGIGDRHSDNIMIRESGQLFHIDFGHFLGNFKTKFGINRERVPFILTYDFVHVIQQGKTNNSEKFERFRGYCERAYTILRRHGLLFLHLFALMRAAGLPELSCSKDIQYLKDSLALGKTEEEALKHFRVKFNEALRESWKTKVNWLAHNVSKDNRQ

Sequence of Bromodomain-containing protein 3 (Q15059 whole entry): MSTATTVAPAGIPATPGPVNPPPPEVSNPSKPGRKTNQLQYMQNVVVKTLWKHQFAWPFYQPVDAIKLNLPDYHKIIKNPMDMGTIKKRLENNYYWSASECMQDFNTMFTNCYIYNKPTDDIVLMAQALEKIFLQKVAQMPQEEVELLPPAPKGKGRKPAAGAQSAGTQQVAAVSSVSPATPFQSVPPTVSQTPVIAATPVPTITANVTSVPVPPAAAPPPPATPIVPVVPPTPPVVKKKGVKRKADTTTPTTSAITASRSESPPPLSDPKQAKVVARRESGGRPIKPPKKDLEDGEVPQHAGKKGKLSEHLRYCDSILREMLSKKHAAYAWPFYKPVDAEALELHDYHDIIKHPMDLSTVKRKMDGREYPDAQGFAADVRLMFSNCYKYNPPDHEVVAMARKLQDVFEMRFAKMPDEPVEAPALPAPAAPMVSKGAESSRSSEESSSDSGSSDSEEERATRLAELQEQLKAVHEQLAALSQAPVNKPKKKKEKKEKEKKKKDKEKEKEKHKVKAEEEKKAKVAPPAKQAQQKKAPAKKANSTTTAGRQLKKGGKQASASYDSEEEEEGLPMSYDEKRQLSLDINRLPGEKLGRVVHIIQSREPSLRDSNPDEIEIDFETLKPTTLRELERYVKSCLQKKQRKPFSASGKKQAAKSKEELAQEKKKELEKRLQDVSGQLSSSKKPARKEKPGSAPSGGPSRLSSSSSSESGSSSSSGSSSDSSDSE
Sequence of Bromodomain-containing protein 2 (P25440 whole entry): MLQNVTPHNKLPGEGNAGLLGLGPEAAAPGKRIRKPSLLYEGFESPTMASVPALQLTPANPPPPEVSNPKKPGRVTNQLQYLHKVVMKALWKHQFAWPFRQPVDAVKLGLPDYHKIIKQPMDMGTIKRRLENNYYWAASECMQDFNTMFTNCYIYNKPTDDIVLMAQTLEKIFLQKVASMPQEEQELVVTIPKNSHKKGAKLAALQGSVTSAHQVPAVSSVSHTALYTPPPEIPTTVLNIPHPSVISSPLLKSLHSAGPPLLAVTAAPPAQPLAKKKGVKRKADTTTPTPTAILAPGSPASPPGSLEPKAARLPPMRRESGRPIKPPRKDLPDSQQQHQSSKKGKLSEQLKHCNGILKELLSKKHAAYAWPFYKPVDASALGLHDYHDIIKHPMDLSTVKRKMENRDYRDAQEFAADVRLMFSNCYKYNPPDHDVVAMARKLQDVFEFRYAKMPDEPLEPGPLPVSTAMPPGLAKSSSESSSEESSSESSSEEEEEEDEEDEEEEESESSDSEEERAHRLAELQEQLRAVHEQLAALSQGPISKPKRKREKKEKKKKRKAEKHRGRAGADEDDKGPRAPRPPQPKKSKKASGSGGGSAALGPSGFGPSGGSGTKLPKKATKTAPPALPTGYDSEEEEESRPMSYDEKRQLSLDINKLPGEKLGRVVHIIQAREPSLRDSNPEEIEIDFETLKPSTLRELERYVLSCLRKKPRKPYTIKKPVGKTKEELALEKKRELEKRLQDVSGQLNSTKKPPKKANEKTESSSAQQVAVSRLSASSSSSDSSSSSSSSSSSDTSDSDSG
Sequence of Mitogen-activated protein kinase 14 (P47811 whole entry, the tested form may be a part): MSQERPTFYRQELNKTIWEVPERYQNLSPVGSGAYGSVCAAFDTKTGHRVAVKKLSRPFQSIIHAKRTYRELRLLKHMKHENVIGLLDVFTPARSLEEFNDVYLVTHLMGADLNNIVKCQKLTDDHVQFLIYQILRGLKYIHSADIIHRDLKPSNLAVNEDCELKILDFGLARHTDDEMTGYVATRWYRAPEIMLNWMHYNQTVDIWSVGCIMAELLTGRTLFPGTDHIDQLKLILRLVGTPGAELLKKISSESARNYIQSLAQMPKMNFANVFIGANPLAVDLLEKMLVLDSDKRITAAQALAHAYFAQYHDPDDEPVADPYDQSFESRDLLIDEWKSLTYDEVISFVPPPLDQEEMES
Sequence of Indoleamine 2,3-dioxygenase 1 (P14902 whole entry): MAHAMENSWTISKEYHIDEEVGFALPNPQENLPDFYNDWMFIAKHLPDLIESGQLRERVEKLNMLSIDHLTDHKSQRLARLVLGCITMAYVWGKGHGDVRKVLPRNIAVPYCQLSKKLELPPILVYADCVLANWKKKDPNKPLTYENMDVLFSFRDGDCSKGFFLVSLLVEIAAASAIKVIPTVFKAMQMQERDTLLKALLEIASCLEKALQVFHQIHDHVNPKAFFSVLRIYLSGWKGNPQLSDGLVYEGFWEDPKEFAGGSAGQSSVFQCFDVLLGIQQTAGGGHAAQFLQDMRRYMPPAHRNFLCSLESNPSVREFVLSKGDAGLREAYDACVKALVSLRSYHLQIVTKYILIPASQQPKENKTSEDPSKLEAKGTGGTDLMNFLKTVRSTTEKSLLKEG
Sequence of Casein kinase I isoform delta (P48730 whole entry, canonical isoform): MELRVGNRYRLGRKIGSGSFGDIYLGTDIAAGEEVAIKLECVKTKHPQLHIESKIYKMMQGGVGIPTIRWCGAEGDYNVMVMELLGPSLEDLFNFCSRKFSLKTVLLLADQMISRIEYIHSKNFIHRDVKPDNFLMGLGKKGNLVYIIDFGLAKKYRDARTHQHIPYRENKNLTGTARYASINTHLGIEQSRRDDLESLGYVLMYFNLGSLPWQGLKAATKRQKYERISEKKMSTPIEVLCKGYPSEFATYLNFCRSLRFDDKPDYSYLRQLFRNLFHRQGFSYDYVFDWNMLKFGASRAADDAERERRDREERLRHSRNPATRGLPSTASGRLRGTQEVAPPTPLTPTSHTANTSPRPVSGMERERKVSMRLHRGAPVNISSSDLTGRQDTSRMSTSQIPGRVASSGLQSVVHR
Sequence of Casein kinase I isoform epsilon (P49674 whole entry, canonical isoform): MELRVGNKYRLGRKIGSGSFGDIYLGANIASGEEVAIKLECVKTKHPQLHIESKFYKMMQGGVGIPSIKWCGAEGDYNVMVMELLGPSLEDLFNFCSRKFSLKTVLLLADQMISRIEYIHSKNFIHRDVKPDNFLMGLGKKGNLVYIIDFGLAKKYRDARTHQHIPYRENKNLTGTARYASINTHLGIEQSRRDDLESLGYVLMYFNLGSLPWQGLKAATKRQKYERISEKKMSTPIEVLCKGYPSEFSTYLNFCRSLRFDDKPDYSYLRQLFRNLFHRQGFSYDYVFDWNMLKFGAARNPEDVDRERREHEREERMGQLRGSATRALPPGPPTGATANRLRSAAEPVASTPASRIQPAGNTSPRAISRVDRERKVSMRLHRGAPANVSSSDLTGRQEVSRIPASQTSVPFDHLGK
Sequence of MAP kinase-activated protein kinase 2 (P49137 whole entry, the tested form may be a part, canonical isoform): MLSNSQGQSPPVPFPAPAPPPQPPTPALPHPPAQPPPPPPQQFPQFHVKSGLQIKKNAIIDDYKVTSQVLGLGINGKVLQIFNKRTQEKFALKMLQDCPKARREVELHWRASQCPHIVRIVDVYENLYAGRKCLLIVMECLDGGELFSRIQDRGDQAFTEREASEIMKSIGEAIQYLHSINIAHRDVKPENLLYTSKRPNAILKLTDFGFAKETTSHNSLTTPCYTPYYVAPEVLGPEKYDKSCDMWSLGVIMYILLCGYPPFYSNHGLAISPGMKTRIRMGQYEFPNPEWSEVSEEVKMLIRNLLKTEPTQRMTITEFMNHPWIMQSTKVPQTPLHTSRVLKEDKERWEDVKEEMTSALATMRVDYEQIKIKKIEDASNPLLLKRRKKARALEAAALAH

CC[C@@H]1C(=O)N(C)c2cnc(Nc3ccc(C(=O)N[C@H]4CC[C@H](N5CCN(CC6CC6)CC5)CC4)cc3OC)nc2N1C(C)C [VOLASERTIB]
Kd [1]: 79 nM

Cc1cn(-c2cc(NC(=O)c3ccc(C)c(Nc4nccc(-c5cccnc5)n4)c3)cc(C(F)(F)F)c2)cn1 [NILOTINIB]
IC50 [2]: 1800 nM

O=C(CCCc1ccc(-c2ccccc2F)cc1)Nc1ccc(O)cc1
IC50 [3]: 330 nM | EC50 [4]: < 1000 nM

Nc1nc(NCCc2ccccc2)c2nc[nH]c2n1
IC50 [5]: 100 to 220 nM

O=c1cc(N2CCNCC2)oc2c(-c3ccccc3)cccc12
IC50 [6]: 9.05 µM | IC50 [7]: 7.4 µM | IC50 [8]: 11.5 µM

C[S+]([O-])c1ccc(-c2nc(-c3ccc(F)cc3)c(-c3ccncc3)[nH]2)cc1 (configuration not stated)
ΔTm [9]: 1.3 °C | ΔTm [10]: 0.85 °C

CCCS(=O)(=O)Nc1ccc(F)c(C(=O)c2c[nH]c3ncc(-c4ccc(Cl)cc4)cc23)c1F [VEMURAFENIB]
EC50 [11]: 5.01 µM

CC1(C)CC2CC(C)(CN2c2ncnc3[nH]cnc23)C1 (configuration not stated)
IC50 [5]: 100 to 220 nM

Cc1cnc(Nc2ccc(N3CCN(C)CC3)cc2)nc1Nc1cccc(S(=O)(=O)NC(C)(C)C)c1
IC50 [12]: 25 nM

Cc1ccc(-c2ccc3c(ccc4sc5c(c43)NC[C@@H](C)NC5=O)n2)cn1
Ki [13]: 5 nM

COc1cc(OC)c(/C=C2/C(=O)Nc3ccccc32)c(OC)c1
IC50 [14]: 1 to 25 µM | IC50 [15]: 1 to 25 µM | EC50 [16]: < 1000 nM

O=C1NC(=O)[C@@H](c2cn3c4c(cccc24)CCC3)[C@@H]1c1c[nH]c2ccccc12 [TIVANTINIB]
EC50 [17]: < 1000 nM

CN1C(=O)C(Cc2c[nH]c3ccccc23)NC1=S (configuration not stated) [NECROSTATIN]
IC50 [18]: 182 nM | IC50 [19]: 115 µM

O=C(c1ccccc1-c1ccccc1)N1CCc2c([nH]c3ccccc23)C1
EC50 [20]: < 1000 nM

O=c1cc(N2CCOCC2)oc2c(-c3ccccc3)cccc12 [LY-294002]
IC50 [6]: 12.4 µM | IC50 [7]: 10.3 µM | IC50 [8]: 13.7 µM | IC50 [21]: 1530 nM

CN(c1ccccc1CNc1nc(Nc2ccc3c(c2)CC(=O)N3)ncc1C(F)(F)F)S(C)(=O)=O
Kd [1]: 445 nM

Oc1ccc(-c2nc(-c3ccc(F)cc3)c(-c3ccncc3)[nH]2)cc1 [SB-202190]
Kd [1]: 3400 nM
